From patent publication US11155523B2, “Biphenyl compound as CCR2/CCR5 receptor antagonist” (Medshine Discovery Inc., priority 2016, dated 2021)

Experiments:
CCR2 = biological target: T1, CCR2 (Homo sapiens, UniProt P41597); experiment: CCR2 in vitro test: intracellular calcium signal detected by FLIPR; format: cell-based; conditions: HEK293 cells expressing CCR2, agonist MCP-1 at EC80, calcium signal
T1 construct: expressed in transfected cells; host or cells: HEK293, clone C7, passage P6
Method in brief: (§1)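 Receptor-expressing cells loaded with Fluo-4 Direct and probenecid (2.5 mM final), then preincubated with compounds (11-point 1:3 series) before challenge at EC80 of agonist (MCP-1 for CCR2, RANTES for CCR5). FLIPR calcium max−min signal; IC50 fitted.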

CCR5 = biological target: T2, CCR5 (Homo sapiens, UniProt P51681); experiment: CCR5 in vitro test: intracellular calcium signal detected by FLIPR; format: cell-based; conditions: HEK293 cells expressing CCR5, agonist RANTES at EC80, calcium signal
T2 construct: expressed in transfected cells; host or cells: HEK293, clone C13, passage P4
Method in brief: as §1

CYP2C9 = biological target: T3, CYP2C9 (Homo sapiens, UniProt P11712); experiment: Inhibition of human liver microsomal CYP2C9 (diclofenac probe); format: in vitro ADME; conditions: human liver microsomes
T3 construct: from tissue; host or cells: human liver microsomes
Method: (§2) Experimental Example 4 Inhibition Effect on the Activity of Human Liver Microsomal Cytochrome P450 Isoezymes (CYP1A2, CYP2C9, CYP2C19, CYP2D6 and CYP3A4)
(§3) A total of 5 specific probe substrates for CYP's five isozymes, Phenacetin (CYP1A2), Diclofenac (CYP2C9), […] (S)-Mephenytoin, CYP2C19), Dextromethorphan (CYP2D6) and Midazolam (CYP3A4) were incubated with human liver microsomes and test compounds, respectively, and reduced nicotinamide adenine dinucleotide phosphate (NADPH) was added to initiate the reaction. After the reaction, the sample was processed and liquid chromatography tandem mass spectrometry (LC-MS/MS) was used to quantitatively detect the […] metabolites produced by the specific substrate, Acetaminophen and 4′-hydroxydiclofenac, 4′-hydroxymephenytoin, Dextrorphan and 1′-hydroxymidazolam, in order to calculate the corresponding half maximal inhibitory concentration (IC50).

[1] = system: human liver microsomal cytochrome P450 isoenzymes; experiment: Inhibition of human liver microsomal cytochrome P450 isoenzymes, overall conclusion; format: in vitro ADME; conditions: human liver microsomes
Method: as §2, §3

T2 sequence (P51681 whole entry, species assumed): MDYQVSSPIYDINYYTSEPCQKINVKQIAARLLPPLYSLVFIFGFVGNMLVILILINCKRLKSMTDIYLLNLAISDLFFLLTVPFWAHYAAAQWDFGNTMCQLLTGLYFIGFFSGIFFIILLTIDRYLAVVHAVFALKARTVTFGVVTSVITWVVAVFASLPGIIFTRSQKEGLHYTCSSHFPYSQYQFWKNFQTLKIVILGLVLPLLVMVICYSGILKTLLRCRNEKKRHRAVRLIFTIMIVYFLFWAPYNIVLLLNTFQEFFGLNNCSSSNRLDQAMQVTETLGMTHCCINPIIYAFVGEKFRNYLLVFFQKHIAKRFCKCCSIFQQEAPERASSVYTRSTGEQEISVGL
T3 sequence (P11712 whole entry): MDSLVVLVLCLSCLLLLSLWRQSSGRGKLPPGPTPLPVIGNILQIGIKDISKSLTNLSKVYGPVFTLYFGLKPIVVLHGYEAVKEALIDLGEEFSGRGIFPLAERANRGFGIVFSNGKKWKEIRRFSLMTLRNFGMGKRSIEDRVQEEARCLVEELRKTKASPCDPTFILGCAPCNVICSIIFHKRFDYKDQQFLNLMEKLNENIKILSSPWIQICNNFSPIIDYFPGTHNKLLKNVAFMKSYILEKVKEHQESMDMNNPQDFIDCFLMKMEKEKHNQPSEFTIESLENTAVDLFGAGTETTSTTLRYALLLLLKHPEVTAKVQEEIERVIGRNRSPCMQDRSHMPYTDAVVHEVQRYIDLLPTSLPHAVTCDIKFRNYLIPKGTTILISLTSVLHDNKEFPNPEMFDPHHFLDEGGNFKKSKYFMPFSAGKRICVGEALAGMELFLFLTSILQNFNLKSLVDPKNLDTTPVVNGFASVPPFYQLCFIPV
T1 sequence (P41597 whole entry, species assumed): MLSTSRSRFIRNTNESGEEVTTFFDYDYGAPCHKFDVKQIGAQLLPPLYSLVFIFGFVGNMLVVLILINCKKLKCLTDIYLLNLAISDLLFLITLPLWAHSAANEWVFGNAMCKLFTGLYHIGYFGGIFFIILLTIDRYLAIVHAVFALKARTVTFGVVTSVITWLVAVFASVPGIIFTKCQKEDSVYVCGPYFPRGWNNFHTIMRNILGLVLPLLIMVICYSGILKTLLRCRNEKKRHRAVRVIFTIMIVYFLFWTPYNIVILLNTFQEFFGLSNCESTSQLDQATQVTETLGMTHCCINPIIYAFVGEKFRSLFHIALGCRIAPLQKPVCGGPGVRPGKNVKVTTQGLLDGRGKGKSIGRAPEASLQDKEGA

Work on `CCCCOCCOc1ccc(-c2ccc(OCC)c(/C=C/C(=O)Nc3ccc([S@+]([O-])Cc4c(C)ncn4CC)cc3)c2)cc1` [WX047] yielded an IC50 (CCR2) of 8.2 nM, an IC50 (CCR5) of 6.7 nM and an IC50 (CYP2C9) greater than 50000 nM. For the same compound, the “Risk of inhibiting isoenzymes of human liver microsomal cytochrome P450 (conclusion in words)” value [1] was “no risk on inhibiting five isoenzymes”.
